Data from PMC6222422, “Synthesis and Biological Evaluation of Novel Indole-Derived Thioureas” (Molecules : A Journal of Synthetic Chemistry and Natural …, 2018).
Converted amounts (≈) assume the structure as drawn.

How the values were obtained:
M. luteus ATCC 9341 = assay: MIC, twofold serial agar dilution; type: cell-based; conditions: Micrococcus luteus, ATCC9341, 18 h, 35 °C, read-out: minimal inhibitory concentrations (MIC)
B. cereus ATCC 11778 = assay: disc diffusion method; type: cell-based, Bacillus cereus; conditions: Bacillus cereus, ATCC11778, applied 400 µg per disc, dash = lack of the growth inhibition area, read-out: diameter of growth inhibitory zone (GIZ)
M. luteus ATCC 10240 = assay: disc diffusion method; type: cell-based, Micrococcus luteus; conditions: Micrococcus luteus, ATCC10240, applied 400 µg per disc, dash = lack of the growth inhibition area, read-out: diameter of growth inhibitory zone (GIZ)
YFV = assay: microbe, parasite or virus in culture; type: cell-based; conditions: Yellow fever virus, BHK, read-out: YFV EC50
VSV = assay: microbe, parasite or virus in culture; type: cell-based; conditions: Vesicular stomatitis virus, Vero 76, read-out: VSV EC50
VV = assay: microbe, parasite or virus in culture; type: cell-based; conditions: Orthopoxvirus vaccinia, Vero 76, read-out: VV EC50
HSV-1 = assay: microbe, parasite or virus in culture; type: cell-based, human herpes 1; conditions: Human alphaherpesvirus 1, Vero 76, read-out: HSV-1 EC50
[1] = target: T1, S. aureus topoisomerase IV (Staphylococcus aureus, UniProt P0C1S7+P0C1U9); conditions: 64 to 0.5 µg/mL, Figure 2
in vitro = conditions: cattle (Bos taurus)
[2] = system: hospital methicillin-susceptible strains of S. aureus (MSSA); assay: MIC against hospital strains; conditions: Staphylococcus aureus
[3] = target: T1, S. aureus topoisomerase IV; assay: biochemical
[4] = hospital S. aureus MSSA strain 440/11
[5] = hospital S. aureus MSSA strain 441/11
[6] = hospital S. aureus MSSA strain 442/11
[7] = hospital S. aureus MSSA strain 443/11
[8] = hospital S. aureus MSSA strain 444/11
[9] = hospital S. aureus MSSA strain 445/11
[10] = hospital S. aureus MSSA strain 446/11
[11] = hospital S. aureus MSSA strain 447/11
[12] = hospital S. aureus MSSA strain 448/11
[13] = hospital S. aureus MSSA strain 449/11

T1 sequence (P0C1U9 whole entry): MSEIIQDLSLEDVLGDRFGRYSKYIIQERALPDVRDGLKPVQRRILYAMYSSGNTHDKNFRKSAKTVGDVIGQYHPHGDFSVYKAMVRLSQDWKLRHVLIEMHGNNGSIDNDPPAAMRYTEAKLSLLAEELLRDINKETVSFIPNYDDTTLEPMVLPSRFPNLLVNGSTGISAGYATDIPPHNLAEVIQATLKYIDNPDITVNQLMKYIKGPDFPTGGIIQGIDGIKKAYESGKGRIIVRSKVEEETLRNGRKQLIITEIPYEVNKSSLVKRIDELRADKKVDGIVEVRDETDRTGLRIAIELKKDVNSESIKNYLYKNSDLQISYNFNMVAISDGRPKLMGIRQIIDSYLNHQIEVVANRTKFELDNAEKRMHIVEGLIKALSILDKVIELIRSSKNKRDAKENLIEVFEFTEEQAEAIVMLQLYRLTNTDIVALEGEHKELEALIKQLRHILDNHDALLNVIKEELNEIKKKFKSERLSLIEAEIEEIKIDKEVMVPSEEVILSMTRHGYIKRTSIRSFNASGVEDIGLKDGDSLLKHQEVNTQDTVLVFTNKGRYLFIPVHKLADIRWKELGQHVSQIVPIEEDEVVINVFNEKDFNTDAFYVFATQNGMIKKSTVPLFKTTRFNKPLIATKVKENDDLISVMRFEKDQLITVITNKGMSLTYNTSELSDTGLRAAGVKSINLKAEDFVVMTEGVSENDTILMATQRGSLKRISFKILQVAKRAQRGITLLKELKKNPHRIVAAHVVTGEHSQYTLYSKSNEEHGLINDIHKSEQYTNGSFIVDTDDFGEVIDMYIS
T1 sequence (P0C1S7 whole entry): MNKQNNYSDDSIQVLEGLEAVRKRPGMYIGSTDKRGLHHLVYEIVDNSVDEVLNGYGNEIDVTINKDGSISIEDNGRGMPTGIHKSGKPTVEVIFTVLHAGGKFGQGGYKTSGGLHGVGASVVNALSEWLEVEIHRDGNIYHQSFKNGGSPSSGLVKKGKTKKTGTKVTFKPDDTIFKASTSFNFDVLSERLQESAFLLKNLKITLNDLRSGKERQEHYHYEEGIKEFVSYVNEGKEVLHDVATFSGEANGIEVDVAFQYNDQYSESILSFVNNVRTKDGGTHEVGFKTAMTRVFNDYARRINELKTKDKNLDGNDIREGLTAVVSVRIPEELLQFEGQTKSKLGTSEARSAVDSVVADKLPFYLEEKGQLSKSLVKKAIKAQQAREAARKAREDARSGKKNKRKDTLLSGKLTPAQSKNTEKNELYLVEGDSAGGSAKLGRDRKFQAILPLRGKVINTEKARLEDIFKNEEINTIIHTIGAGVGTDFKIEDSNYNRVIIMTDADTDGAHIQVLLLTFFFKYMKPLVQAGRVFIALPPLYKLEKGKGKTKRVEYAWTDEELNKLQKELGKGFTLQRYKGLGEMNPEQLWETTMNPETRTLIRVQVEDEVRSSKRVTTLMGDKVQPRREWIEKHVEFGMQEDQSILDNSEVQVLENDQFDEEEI

SMILES	MIC (M. luteus ATCC 9341) [µg/mL]	zone of inhibition at 400 µg/disc (B. cereus ATCC 11778) [mm]	zone of inhibition at 400 µg/disc (M. luteus ATCC 10240) [mm]	EC50 (YFV) [µM]	EC50 (VSV) [µM]	EC50 (VV) [µM]	EC50 (HSV-1) [µM]	effect against DNA topoisomerase IV (in words) [1]	CC50 (in vitro) [µM]	MIC [2, 4] [µg/mL]	MIC [2, 5] [µg/mL]	MIC [2, 6] [µg/mL]	MIC [2, 7] [µg/mL]	MIC [2, 8] [µg/mL]	MIC [2, 9] [µg/mL]	MIC [2, 10] [µg/mL]	MIC [2, 11] [µg/mL]	MIC [2, 12] [µg/mL]	MIC [2, 13] [µg/mL]	IC50 [3] [µM]
S=C(NCCc1c[nH]c2ccccc12)Nc1cccc(Cl)c1 [Compound 14, 1-(2-(1H-Indol-3-yl)ethyl)-3-(3-chlorophenyl)thiourea]	200 (≈ 606 µM)	15	20	> 6	> 32	> 32	> 32	not significantly effective	32	25 (≈ 75.8 µM)	25 (≈ 75.8 µM)	25 (≈ 75.8 µM)	25 (≈ 75.8 µM)	12.5 (≈ 37.9 µM)	25 (≈ 75.8 µM)	25 (≈ 75.8 µM)	25 (≈ 75.8 µM)	25 (≈ 75.8 µM)	25 (≈ 75.8 µM)	
S=C(NCCc1c[nH]c2ccccc12)Nc1ccc(Cl)c(Cl)c1 [Compound 6, 1-(2-(1H-indol-3-yl)ethyl)-3-(3,4-dichlorophenyl)thiourea]	12.5 (≈ 34.3 µM)	15	23	> 10	> 13	> 13	> 13		27	6.25 (≈ 17.2 µM)	6.25 (≈ 17.2 µM)	6.25 (≈ 17.2 µM)	6.25 (≈ 17.2 µM)	6.25 (≈ 17.2 µM)	6.25 (≈ 17.2 µM)	6.25 (≈ 17.2 µM)	6.25 (≈ 17.2 µM)	6.25 (≈ 17.2 µM)	6.25 (≈ 17.2 µM)	79.3
